Experimental findings from US20240262863A1, “PEPTIDE FRAGMENT AND USE THEREOF” (TOAGOSEI CO., LTD., priority 2021, published 2024) are described below.

FAM = 5(6)-carboxyfluorescein

In the assay the test system is HeLa cells. In words: Evaluation of cell membrane penetrating ability of FAM-labelled constructs by flow cytometry. It counts as cell-based, human. To be noted: for MFI (mean fluorescent intensity): 10 μM in culture solution, 0.5% DMSO, 20 h incubation at 37° C., flow cytometer detector FL2; for MFI value compared to Example 2: 10 μM, 20 h incubation. As for the experimental part:
The cell membrane penetrating ability of samples 1 to 3 was evaluated using HeLa cells (an established cell line derived from human cervical cancer cells) as eukaryotic cells. […] In addition, “FAM” in Table 2 indicates the abovementioned fluorescent dye.
HeLa cells were cultured in DMEM (Dulbecco's modified Eagle's medium, manufactured by Fuji Film Wako Pure Chemical Industries, Cat. No. 043-30085) containing 10% FBS (fetal bovine serum), which is an ordinary culture medium.
HeLa cells adhering to the culture plate were washed with PBS, 0.25% trypsin/EDTA solution was added, and the cells were incubated for 3 min at 37° C. After incubation, the same DMEM medium including 10% FBS was added to deactivate the trypsin, and the cells were then precipitated by centrifugation for 5 min at 150×g. The supernatant produced by centrifugation was removed, and the same DMEM including 10% FBS was added to the precipitate (cell pellet) to prepare an approximately 1×10^5 cells/mL cell suspension. A total of 2 mL of the cell suspension was added to the wells of a commercial 6-hole (well) plate (AGC Techno Glass Co., Ltd) to seed the cells (at approximately 2×10^5 cells/well). Subsequent culturing for 3 h at 37° C. under conditions of 5% CO2 caused the cells to adhere to the bottom of the wells.
Next, the above 2 mM sample solution 1 was diluted with DMEM including 10% FBS to prepare a sample solution 1 in which the concentration of Sample 1 was 20 μM. A total of 1 mL of the culture supernatant was removed from the wells after the 3 h of culture, and 1 mL of the 20 μM sample solution 1 was added to the wells (that is, the concentration of Sample 1 in the culture solution in the wells was made 10 μM and the DMSO concentration was made 0.5%). The cells were then incubated for 20 h at 37° C. under conditions of 5% CO2. After such 20-h incubation, the culture supernatant was removed from the wells, and the cells in the wells were washed twice with 1 mL of PBS. A total of 200 μL of 0.25% trypsin/EDTA solution was then added to the wells, and the cells were incubated for 3 min at 37° C. After this incubation, 400 μL of the above DMEM containing 10% FBS was added to the wells to deactivate the trypsin, the cell suspension in the well was thereafter transferred to a tube, and the cells were collected. A total of 600 μL of PBS was then added to the wells to wash the wells. The PBS in the wells was then transferred to the above tube to collect the cells remaining in the wells in the tube. This tube was centrifuged for 5 min under conditions of 210×g at 4° C. After centrifugation the supernatant was removed, and the precipitate (cell pellet) was suspended (washed) in 1 mL of PBS and centrifuged under the same conditions as described above. This operation was repeated twice, and the supernatant was thereafter removed to obtain cells (a cell pellet) that had been cultured in medium including Sample 1.
The cell penetrating ability of Sample 1 was analyzed by using flow cytometry with respect to the cells (cell pellet) obtained above. An On-chip Flow cytometer (manufactured by On-chip Biotechnologies Co., Ltd.) was used as the flow cytometer.
For this analysis, the cell pellet obtained above was suspended in 50 μL of PBS. A total of 50 μL of 2× sample buffer for flow cytometry was further added to this suspension to prepare a cell suspension for analysis.
Gating was performed using the flow cytometer on the basis of forward scatter (FSC) and side scatter (SSC), a gate was set for the cell population under analysis, and fluorescent intensity was measured for the cell population within this gate. Analysis was performed so that the cell population was composed of about 10,000 cells. Fluorescent intensity was measured using the fluorescence detector FL2 (optimal detection wavelength close to 543 nm) of the flow cytometer, which can detect the fluorescent wavelength of FAM. […]

As to “5(6)-carboxyfluorescein [Example 4, reference compound]”, the “MFI (mean fluorescent intensity)” value stood at 14.3. Same read-out and setting: then “FAM-VVRSLVKVVRSLVK-CONH2 ({FAM}-VVRSLVKVVRSLVK-NH2) [Example 2]”, with 715.

Consider “FAM-VVKSLVKVVKSLVK-CONH2 ({FAM}-VVKSLVKVVKSLVK-NH2) [Example 1]”, for which the “MFI (mean fluorescent intensity)” value was determined as 1591 and the “MFI value compared to Example 2” value is on record as “more than twice”. For the substance “FAM-VVRSLVRVVRSLVR-CONH2 ({FAM}-VVRSLVRVVRSLVR-NH2) [Example 3]”, the “MFI (mean fluorescent intensity)” value is reported as 489 and the “MFI value compared to Example 2” value is recorded as “greatly reduced”.
